These results are taken from patent publication US12239635B2, “Treatment of cognitive disorders using nitazoxanide (NTZ), nitazoxanide (NTZ) analogs, and metabolites thereof” (The Trustees of Columbia University in the City of New York, priority 2018, dated 2025).

Data set [1] is described as follows: in vivo. To be noted: ICR, mouse, po; for AUC(0-inf): AUC0-∞; for AUC(0-t): AUClast. As to the method:
(§1) wherein Cmax indicates maximum plasma concentration observed, Tmax indicates time to Cmax, AUClast indicates the Area Under the Curve from zero to the last time point, AUC0-∞ indicates the total area under the plasma concentration time curve from zero to infinity, and T1/2 indicates terminal elimination half-life. […] Brain/Plasma ratio was calculated using the formula: (Brain AUClast)/(Plasma AUClast).

Data set [2] is described as follows: in vivo. To be noted: Sprague Dawley, rat, po; for AUC(0-inf): AUC0-∞; for AUC(0-t): AUClast. As to the method:
A pharmacokinetic experiment was performed to determine Tizoxanide (TIZ, active metabolite of Nitazoxanide, NTZ) in rat brain and plasma following oral administration to Sprague Dawley (SD) rat.
An Nitazoxanide (NTZ) pill (Alinia) solution was prepared at a concentration of 14.5 mg/mL (10.0 mg/mL as Nitazoxanide (NTZ) for oral administration (per os, PO), ad libitum, in a mixture of 0.5% methyl cellulose and 99.5% saline. The PO dosing volume was 10 mL/kg. SD rats (n=3 per time point; weighing 0.161 to 0.171 kg) were fasted and oral administration was given using a gavage needle. Blood samples were collected from jugular vein and brain tissues were sampled at 0.33, 1 and 4 hrs after oral administration. Blood samples were centrifuged immediately and a 100 ul aliquot of plasma, and the brain tissues were stored −20° C. until the analysis. The concentration of Nitazoxanide (NTZ) and Tizoxanide (TIZ) in plasma and brain were determined by HPLC/MS/MS analysis. An Agilent 1200 HPLC with Zorbax C18 column and an API4000 tandem quadrupole mass spectrometer were used. The molecular ions of Nitazoxanide (NTZ), Tizoxanide (TIZ) and an internal standard (Chlorzoxazone) were fragmented and detected by monitoring the transitions for each compound. Peak areas were integrated using Analyst software version 1.5.1. (Applied Biosystems). The quantifiable range was from 0.001 to 3 μg/ml for plasma and brain samples. Plasma or brain concentration-time profile for each rat was analyzed (WinNonlin 4.1 program) to obtain pharmacokinetic profile parameters.
as §1

The conditions of data set [3]: literature (Stockis et al. and others); cited from earlier work.
For data set [4] the following is noted: active metabolite following oral administration of Nitazoxanide; cited from earlier work.

Molecules are shown by their SMILES.

In the case of `CC(=O)Oc1ccccc1C(=O)Nc1ncc([N+](=O)[O-])s1` [Nitazoxanide (NTZ), [2-[(5-nitro-1,3-thiazol-2-yl)carbamoyl]phenyl]ethanoate], the Brain/plasma ratio in “in vivo [1]” came to 0.015. Further, the Brain/plasma ratio in the data set “in vivo [2]” is listed as 0.008. Also, in data set [3], the “Pharmacokinetic profile in humans” value is given as “excellent pharmacokinetic profiles” and the Tolerability in humans entry is “well-tolerated”.

Consider `O=C(Nc1ncc([N+](=O)[O-])s1)c1ccccc1O` [Tizoxanide (TIZ), Tizoxanide], for which the Brain/plasma ratio in the data set “in vivo [1]” is on record as 0.015; in the data set “in vivo [2]”, 0.008. Also, in “in vivo [1]”, the “Cmax, plasma” value was 288.50 ± 227.73 ng/mL. Moreover, the “Tmax, brain” value in the data set “in vivo [1]” is recorded as 1.55 ± 2.12 h; in the data set “in vivo [2]” it was 0.53 ± 0.39 h. Further, the AUC(0-inf) in the data set “in vivo [1]” (brain) came out at 9.06 ng·h/mL; in “in vivo [1]” (plasma), 1000 ng·h/mL; in “in vivo [2]” (brain), 62.8 ng·h/mL; in “in vivo [2]” (plasma), 5420 ng·h/mL. In addition, the AUC(0-t) in “in vivo [1]” (brain) was 7.18 ± 5.62 ng·h/mL; in the data set “in vivo [1]” (plasma), 485 ± 163 ng·h/mL; in “in vivo [2]” (brain), 17.9 ± 14.6 ng·h/mL; in the data set “in vivo [2]” (plasma), 2320 ± 603 ng·h/mL. Also, in the data set “in vivo [1]” (Cmax, plasma), the Cmax came out at 228 ng/mL. The half-life is 1.15 h in “in vivo [1]” (T1/2, brain); 3.8 h in the data set “in vivo [1]” (T1/2, plasma); 2.85 h in the data set “in vivo [2]” (T1/2, brain); 3.86 h in “in vivo [2]” (T1/2, plasma). Further, the Tmax in the data set “in vivo [1]” (brain) stood at 1.78 h; in “in vivo [1]” (plasma), 0.67 h; in “in vivo [2]” (brain), 0.55 h; in “in vivo [2]” (plasma), 0.39 h. Besides, the Protein bound in data set [4] is 99%. In addition, in data set [3], the “Pharmacokinetic profile in humans” value is recorded as “excellent pharmacokinetic profiles”. In data set [3], the Tolerability in humans entry is recorded as “well-tolerated”.

For the compound `O=C(Nc1ncc([N+](=O)[O-])s1)c1ccccc1O[C@@H]1O[C@H](C(=O)O)[C@@H](O)[C@H](O)[C@H]1O` [Tizoxanide glucuronide (TIZ-G), Tizoxanide glucuronide], in data set [3], the “Pharmacokinetic profile in humans” value is recorded as “excellent pharmacokinetic profiles” and the Tolerability in humans entry is reported as “well-tolerated”.

Broadly, the AUC(0-inf) is the area under the concentration-time curve extrapolated to infinity. A lower AUC(0-inf) goes with less exposure. Broadly, the AUC(0-t) is the area under the concentration-time curve up to a stated or last time point. As usually defined, the Cmax is the peak of the concentration-time curve. In general, half-life refers to how long it takes for the measured level to halve. Higher therefore signals slow decline. One may read the Tmax as the time at which the peak concentration occurs.
